Data on 21 molecules can be found in patent US12240862B2, “Inhibitors of peptidylarginine deiminases” (Gilead Sciences, Inc., priority 2020, dated 2025).

For the assay, the target named is T1, human PAD4 (Homo sapiens, UniProt Q9UM07).
T1 construct: human PAD4 (NM_012387), A2P663, was PCR amplified; His-SUMO (N, cleaved yes); made in house; host or cells: E. coli BL21(DE3)
T1 sequence (Q9UM07 2-663): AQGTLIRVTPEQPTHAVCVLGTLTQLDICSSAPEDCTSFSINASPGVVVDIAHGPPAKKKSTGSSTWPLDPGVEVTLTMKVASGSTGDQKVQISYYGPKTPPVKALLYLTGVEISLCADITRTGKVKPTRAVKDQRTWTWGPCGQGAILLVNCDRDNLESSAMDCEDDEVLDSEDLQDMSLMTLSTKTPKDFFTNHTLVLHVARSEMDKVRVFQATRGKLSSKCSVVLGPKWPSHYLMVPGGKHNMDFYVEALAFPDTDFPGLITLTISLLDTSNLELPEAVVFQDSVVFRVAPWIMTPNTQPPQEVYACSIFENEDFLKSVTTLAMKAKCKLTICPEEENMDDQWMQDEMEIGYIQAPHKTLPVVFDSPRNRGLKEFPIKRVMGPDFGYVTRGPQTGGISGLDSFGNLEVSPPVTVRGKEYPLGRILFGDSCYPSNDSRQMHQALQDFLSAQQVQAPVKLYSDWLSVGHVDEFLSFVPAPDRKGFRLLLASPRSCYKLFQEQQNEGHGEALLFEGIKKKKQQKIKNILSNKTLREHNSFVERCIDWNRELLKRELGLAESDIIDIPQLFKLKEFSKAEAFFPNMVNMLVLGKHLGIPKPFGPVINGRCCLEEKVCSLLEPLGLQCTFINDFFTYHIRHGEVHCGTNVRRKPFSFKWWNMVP
The experiment in a line: In vitro PAD4 BAEE biochemical assay. To be noted: human PAD4, BAEE substrate; 5 nM PAD4, 2 mM calcium chloride, 3 mM BAEE; geometric mean of multiple experiments. Put shortly:
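Ammonia generated from BAEE serves as the readout, measured by o-phthalaldehyde after EDTA termination. Final conditions: 5 nM human PAD4 (SUMO tag cleaved), 2 mM CaCl2, 3 mM BAEE, pH 7.6 MOPS buffer, 25 °C for 2 h following a 30-min compound preincubation.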
Turning to `COc1cc(C(=O)N2[C@H]3CC[C@@H]2[C@H](N)C3)cc2nc(-c3cc4ccc(C(C)n5cncn5)nc4n3CC3CC3)c(C)n12` (stereo partly drawn) [Example 546, [(1~{R},2~{R},4~{S})-2-amino-7-azabicyclo [2.2.1]heptan-7-yl]-[2-[1-(cyclopropylmethyl)-6-[1-(1,2,4-triazol-1-yl)ethyl]pyrrolo[2,3-b]pyridin-2-yl]-5-methoxy-3-methylimidazo[1,2-a]pyridin-7-yl]methanone], the half-inhibitory concentration (IC50) amounted to 156 nM.
Consider `COc1cc(C(=O)N2CCC[C@@H](N)C2)cc2nc(-c3cc4ccc(N(C(F)F)S(C)(=O)=O)nc4n3CC3CC3)c(CC(C)C)n12` [Example 430, ~{N}-[2-[7-[(3~{R})-3-aminopiperidine-1-carbonyl]-5-methoxy-3-(2-methylpropyl)imidazo [1,2-a]pyridin-2-yl]-1-(cyclopropylmethyl)pyrrolo [2,3-b]pyridin-6-yl]-~{N}-(difluoromethyl) methanesulfonamide], for which the half-inhibitory concentration (IC50) stood at 943 nM.
In the case of `CCCC(CC(=O)N1CCCC1)c1ccc2cc(-c3nc4cc(C(=O)N5[C@H]6CC[C@@H]5[C@H](N)C6)cc(OC)n4c3C)n(CC3CC3)c2n1` (stereo partly drawn) [Example 541, 3-[2-[7-[(1~{R},2~{R}, 4~{S})-2-amino-7-azabicyclo[2.2.1]heptane-7-carbonyl]-5-methoxy-3-methylimidazo[1,2-a]pyridin-2-yl]-1-(cyclopropylmethyl)pyrrolo [2,3-b]pyridin-6-yl]-1-pyrrolidin-1-ylhexan-1-one], the half-maximal inhibitory concentration (IC50) was 270 nM.
The same measure for `COc1cc(C(=O)N2[C@H]3CC[C@@H]2[C@H](N)C3)cc2nc(-c3cc4ccc([C@@H](C)NC(=O)N5CCC(C(=O)O)C5)nc4n3CC3CC3)c(C)n12` (stereo partly drawn) [Example 228]: 48.6 nM; for `COc1cc(C(=O)N2[C@H]3CC[C@@H]2[C@H](N)C3)cc2nc(-c3cc4ccc([C@@H](C)NC(=O)C5CC(F)(F)C5)nc4n3CC3CC3)c(C)n12` [Example 85, ~{N}-[(1~{R})-1-[2-[7-[(1~{R},2~{R},4~{S})-2-amino-7-azabicyclo[2.2.1]heptane-7-carbonyl]-5-methoxy-3-methylimidazo [1,2-a]pyridin-2-yl]-1-(cyclopropylmethyl)pyrrolo [2,3-b]pyridin-6-yl]ethyl]-3,3-difluorocyclobutane-1-carboxamide]: 28.7 nM; for `COc1cc(C(=O)N2[C@H]3CC[C@@H]2[C@H](N)C3)cc2nc(-c3cc4ccc([C@@H](C)NC(=O)C5(O)CCC5)nc4n3CC3CC3)c(C)n12` [Example 95, ~{N}-[(1~{R})-1-[2-[7-[(1~ {R},2~{R},4~{S})-2-amino-7-azabicyclo[2.2.1]heptane-7-carbonyl]-5-methoxy-3-methylimidazo[1,2-a]pyridin-2-yl]-1-(cyclopropylmethyl)pyrrolo [2,3-b]pyridin-6-yl]ethyl]-1-hydroxycyclobutane-1-carboxamide]: 43.5 nM.
The same measure for `COc1cc(C(=O)N2CCC[C@@H](N)C2)cc2nc(-c3cc4ccc(-c5ccc(N)nc5C)nc4n3CC3CC3)c(C)n12` [Example 605, [2-[6-(6-amino-2-methylpyridin-3-yl)-1-(cyclopropylmethyl)pyrrolo[2,3-b]pyridin-2-yl]-5-methoxy-3-methylimidazo[1,2-a]pyridin-7-yl]-[(3~{R})-3-aminopiperidin-1-yl]methanone]: 518 nM; for `COc1cc(C(=O)N2[C@H]3CC[C@@H]2[C@H](N)C3)cc2nc(-c3cc4ccc([C@@H](C)NC(=O)N5CCOC[C@@H]5C(F)(F)F)nc4n3CC3CC3)c(C)n12` [Example 199, (3~{R})-~{N}-[(1~{R})-1-[2-[7-[(1~{R}, 2~{R},4~{S})-2-amino-7-azabicyclo[2.2.1]heptane-7-carbonyl]-5-methoxy-3-methylimidazo [1,2-a]pyridin-2-yl]-1-(cyclopropylmethyl)pyrrolo [2,3-b]pyridin-6-yl]ethyl]-3-(trifluoromethyl)morpholine-4-carboxamide]: 35.4 nM; for `CCc1ccc2cc(-c3nc4cc(C(=O)N5CCC[C@@H](N)C5)cc(OC)n4c3C)n(CC3CC3)c2n1` [Example 613, [(3~{R})-3-aminopiperidin-1-yl]-[2-[1-(cyclopropylmethyl)-6-ethylpyrrolo[2,3-b]pyridin-2-yl]-5-methoxy-3-methylimidazo [1,2-a]pyridin-7-yl] methanone]: 302 nM.
In the case of `COc1cc(C(=O)N2[C@H]3CC[C@@H]2[C@H](N)C3)cc2nc(-c3cc4ccc([C@@H](C)NC(=O)C5CC6(CCC6)C5)nc4n3CC3CC3)c(C)n12` [Example 43, ~{N}-[(1~{R})-1-[2-[7-[(1~{R},2~{R},4~{S})-2-amino-7-azabicyclo[2.2.1]heptane-7-carbonyl]-5-methoxy-3-methylimidazo [1,2-a]pyridin-2-yl]-1-(cyclopropylmethyl)pyrrolo[2,3-b]pyridin-6-yl]ethyl]spiro[3.3]heptane-2-carboxamide], the IC50 came to 49.6 nM.
As to `COc1cc(C(=O)N2C[C@H]3C[C@H](O)[C@@H]2[C@@H]3N)cc2nc(-c3cc4ccc(N(C(F)F)S(C)(=O)=O)nc4n3CC3CC3)c(C)n12` [Example 378, N-[2-[7-[(1S,4R,6S,7R)-7-amino-6-hydroxy-2-azabicyclo[2.2.1]heptane-2-carbonyl]-5-methoxy-3-methyl-imidazo [1,2-a]pyridin-2-yl]-1-(cyclopropylmethyl)pyrrolo [2,3-b]pyridin-6-yl]-N-(difluoromethyl) methanesulfonamide], the IC50 was 341 nM.
Consider `COc1cc(C(=O)N2[C@H]3CC[C@@H]2[C@H](N)C3)cc2nc(-c3cc4ccc([C@@H](C)N5CCN(C)C5=O)nc4n3CC3CC3)c(C)n12` [Example 270, 1-[(1~{R})-1-[2-[7-[(1~{R},2~{R},4~{S})-2-amino-7-azabicyclo[2.2.1]heptane-7-carbonyl]-5-methoxy-3-methylimidazo [1,2-a]pyridin-2-yl]-1-(cyclopropylmethyl)pyrrolo [2,3-b]pyridin-6-yl]ethyl]-3-methylimidazolidin-2-one], for which the IC50 turned out to be 34.7 nM.
On to `COc1cc(C(=O)N2[C@H]3CC[C@@H]2[C@H](N)C3)cc2nc(-c3cc4ccc([C@@H](C)NC(=O)C5(C(F)(F)F)CCOCC5)nc4n3CC3CC3)c(C)n12` [Example 67, ~{N}-[(1~{R})-1-[2-[7-[(1~{R},2~{R},4~{S})-2-amino-7-azabicyclo [2.2.1]heptane-7-carbonyl]-5-methoxy-3-methylimidazo [1,2-a]pyridin-2-yl]-1-(cyclopropylmethyl)pyrrolo[2,3-b]pyridin-6-yl]ethyl]-4-(trifluoromethyl)oxane-4-carboxamide], for which the IC50 came out at 124 nM.
Take “~{N}-[(1~{R})-1-[2-[7- [(1~{R},2~{R},4~{S})-2- amino-7- azabicyclo[2.2.1]heptane- 7-carbonyl]-3-cyclopropyl- 5-methoxyimidazo [1,2-a]pyridin-2-yl]-1-(1- bicyclo[1.1.1] pentanylmethyl)pyrrolo [2,3-b]pyridin-6-yl]ethyl]- 3-fluorobicyclo[1.1.1] pentane-1-carboxamide [Example 487]”: the half-maximal inhibitory concentration (IC50) worked out at 331 nM.
For `COc1cc(C(=O)N2CC[C@H]3OCCCN[C@H]3C2)cc2nc(-c3cc4ccc(N(C(F)F)S(C)(=O)=O)nc4n3CC3CC3)c(C)n12` [Example 359], the concentration for half-maximal inhibition (IC50) stood at 420 nM.
`COc1cc(C(=O)N2[C@H]3CC[C@@H]2[C@H](N)C3)cc2nc(-c3cc4ccc(C5CCCN(C(=O)C(C)(C)C)C5)nc4n3CC3CC3)c(C)n12` (stereo partly drawn) [Example 517, 1-[3-[2-[7-[(1~{R},2~{R}, 4~{S})-2-amino-7-azabicyclo[2.2.1]heptane-7-carbonyl]-5-methoxy-3-methylimidazo[1,2-a]pyridin-2-yl]-1-(cyclopropylmethyl)pyrrolo[2,3-b]pyridin-6-yl]piperidin-1-yl]-2,2-dimethylpropan-1-one]: the IC50 stood at 618 nM.
The same measure for `COc1cc(C(=O)N2[C@H]3CC[C@@H]2[C@H](N)C3)cc2nc(-c3cc4ccc(N5CCN(C)CCS5(=O)=O)nc4n3CC3CC3)c(C)n12` [Example 443, [(1~{R},2~{R},4~{S})-2-amino-7-azabicyclo [2.2.1]heptan-7-yl]-[2-[1-(cyclopropylmethyl)-6-(5-methyl-1,1-dioxo-1,2,5-thiadiazepan-2-yl)pyrrolo[2,3-b]pyridin-2-yl]-5-methoxy-3-methylimidazo [1,2-a]pyridin-7-yl] methanone]: 34.4 nM; for `COc1cc(C(=O)N2[C@@H]3CC[C@@H](N)[C@H]2CC3)cc2nc(-c3cc4ccc(N(C(F)F)S(C)(=O)=O)nc4n3CC3CC3)c(C)n12` [Example 407, ~{N}-[2-[7-[(1~{R},2~{R}, 5~{R})-2-amino-8-azabicyclo[3.2.1]octane-8-carbonyl]-5-methoxy-3-methylimidazo[1,2-a]pyridin-2-yl]-1-(cyclopropylmethyl)pyrrolo [2,3-b]pyridin-6-yl]-~{N}-(difluoromethyl) methanesulfonamide]: 129 nM; for `CCN(c1ccc2cc(-c3nc4cc(C(=O)N5CCC[C@@H](N)C5)cc(OC)n4c3C)n(CC3CC3)c2n1)S(C)(=O)=O` [Example 484, ~{N}-[2-[7-[(3~{R})-3-aminopiperidine-1-carbonyl]-5-methoxy-3-methylimidazo[1,2-a]pyridin-2-yl]-1-(cyclopropylmethyl)pyrrolo [2,3-b]pyridin-6-yl]-~{N}-ethylmethanesulfonamide]: 145 nM.
For `COc1cc(C(=O)N2C[C@H](N)CCN2C)cc2nc(-c3cc4ccc([C@@H](C)NC(=O)c5ccccc5)nc4n3CC3CC3)c(C)n12` [Example 614, N—((R)-1-(2-(7-((R)-5-amino-2-methylhexahydropyridazine-1-carbonyl)-5-methoxy-3-methylimidazo[1,2-a]pyridin-2-yl)-1-(cyclopropylmethyl)-1H-pyrrolo[2,3-b]pyridin-6-yl)ethyl)benzamide], the half-maximal inhibitory concentration (IC50) came to 90.2 nM.
Turning to `CCC1CC2CN(C(=O)c3cc(OC)n4c(C)c(-c5cc6ccc(N(C(F)F)S(C)(=O)=O)nc6n5CC5CC5)nc4c3)C1C2N` (stereo not drawn) [Example 370], the IC50 worked out at 17100 nM.

Usually IC50 stands for the concentration that inhibits the measured activity by half.
